Laboratory results as given in patent US20230203044A1, “PYRAZOLO[1,5-D][1,2,4]TRIAZINE-5(4H)-ACETAMIDES AS INHIBITORS OF THE NLRP3 INFLAMMASOME” (JANSSEN PHARMACEUTICA NV, priority 2020, published 2023).

What was measured:
[1] = test system: TNF; assay: PBMC assay: TNF cytokine levels in LPS-stimulated human PBMCs (MSD); type: cell-based; conditions: 100 ng/ml LPS for 6 hrs, TNF in supernatant via MSD
How it was run: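 Cryopreserved healthy-donor human PBMCs (7.5×10^4 cells/well, RPMI + 10% FBS) were preincubated with 1:3 serially diluted compounds for 30 min at 37 °C. They were then stimulated with 100 ng/ml LPS (final) for 6 h. Supernatant TNF was measured by MSD, and EC50 values were derived.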

[2] = test system: NLRP3 inflammasome; assay: PBMC assay: IL-1β in LPS-stimulated human PBMCs (MSD); type: cell-based; conditions: human PBMCs, 100 ng/ml LPS for 6 hrs, IL-1β in supernatant via MSD, read-out: IL1β IC50
How it was run: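 Human PBMCs from healthy donors, Ficoll-isolated and cryopreserved, were plated at 7.5×10^4 cells/well in RPMI/10% FBS for 30 min at 37 °C. Cells were then stimulated with 100 ng/ml LPS (final) for 6 h. IL-1β and TNF in supernatants were quantified by MSD immunoassay.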

| Compound | EC50 [1] [µM] | IC50 [2] [µM] |
| --- | --- | --- |
| CCc1nn(CC(=O)Nc2ccncc2)c(=O)c2ccnn12 [Final Cpd 79] | > 10 | > 10 |
| CC(C)c1nn(CC(=O)Nc2cc(F)[nH]c(=O)c2)c(=O)c2cc(C3CC3)nn12 [Final Cpd 164] | > 10 | 0.54 |
| CCc1nn(CC(=O)Nc2ccc3nncn3c2)c(=O)c2cc(I)nn12 [Final Cpd 6] | > 10 | 0.23 |
| COc1ccncc1NC(=O)Cn1nc(C(C)C)n2nc(C3CC3)cc2c1=O [Final Cpd 125] | > 10 | 9.37 |
| Cc1nn(CC(=O)NC2(C(F)(F)F)CCOC2)c(=O)c2cc(C3CC3)nn12 (stereo not shown) [Final Cpd 51] | > 10 | > 10 |
| CCCCc1nn(CC(=O)N[C@H]2C[C@@](C)(O)C2)c(=O)c2cc(C3CC3)nn12 [Final Cpd 196] | > 10 | > 10 |
| CCc1cc2c(=O)n(CC(=O)Nc3ccnnc3)nc(N(C)C)n2n1 [Final Cpd 152] | > 10 | 0.86 |
| Cc1cc(NC(=O)Cn2nc(C(C)C)n3nc(C4CC4)cc3c2=O)ccn1 [Final Cpd 127] | > 10 | 0.18 |
| C[C@]1(O)C[C@@H](NC(=O)Cn2nc(CC3CCC3)n3nc(C4CC4)cc3c2=O)C1 [Final Cpd 198] | > 10 | > 10 |
| C=C(OCC)c1cc2c(=O)n(CC(=O)Nc3ccncn3)nc(C(C)C)n2n1 [Final Cpd 179, 2-(2-(1-ethoxyvinyl)-7-isopropyl-4-oxopyrazolo[1,5-d][1,2,4]triazin-5(4H)-yl)-N-(pyrimidin-4-yl)acetamide] | > 10 | > 10 |
| CC(C)c1nn(CC(=O)Nc2ccc(C(F)(F)F)nn2)c(=O)c2cc(C3CC3)nn12 [Final Cpd 172, 2-(2-cyclopropyl-7-isopropyl-4-oxopyrazolo[1,5-d][1,2,4]triazin-5(4H)-yl)-N-(6-(trifluoromethyl)pyridazin-3-yl)acetamide] | > 10 | > 10 |
| CC(C)c1nn(CC(=O)Nc2ccc(C(F)F)nn2)c(=O)c2cc(C3CC3)nn12 [Final Cpd 174] | > 10 | 6.75 |
| CC(C)c1nn(CC(=O)Nc2ccc3cncn3c2)c(=O)c2cc(C3CC3)nn12 [Final Cpd 87] | 6.17 | 0.063 |
| CC(C)c1nn(CC(=O)N[C@H]2CN(C(=O)OC(C)(C)C)CC[C@H]2O)c(=O)c2cc(C3CC3)nn12 [Final Cpd 34] | > 10 | 5.66 |
| CC(C)c1nn(CC(=O)N[C@H]2C[C@@](C)(O)C2)c(=O)c2c(F)c(C3CC3)nn12 [Final Cpd 43] | > 10 | 1.06 |
| CC(C)c1nn(CC(=O)N[C@@H]2CCC(=O)N(CC3CC3)C2)c(=O)c2cc(C3CC3)nn12 [Final Cpd 26] | > 10 | > 10 |
| CC(C)Cc1nn(CC(=O)Nc2ccc3nncn3c2)c(=O)c2cc(C3CC3)nn12 [Final Cpd 69] | > 10 | ~2.45 |
| CC(C)c1nn(CC(=O)Nc2ccc3nncn3c2)c(=O)c2cc(CC(F)(F)F)nn12 [Final Cpd 159] | > 10 | 2.24 |
| CC(C)c1cc2c(=O)n(CC(=O)Nc3ccc4nncn4c3)nc(C(C)O)n2n1 (stereo not shown) [Final Cpd 155] | > 10 | 1.14 |
| CC(C)c1nn(CC(=O)N[C@@H]2CCOC[C@@H]2O)c(=O)c2cc(C3CC3)nn12 [Final Cpd 33] | > 10 | 1.56 |
| CCc1cc2c(=O)n(CC(=O)Nc3ccncn3)nc(CC)n2n1 [Final Cpd 13] | > 10 | 1.71 |
| CCOC(C)c1cc2c(=O)n(CC(=O)Nc3ccncn3)nc(C(C)C)n2n1 (stereo not shown) [Final Cpd 180, 2-(2-(1-ethoxyethyl)-74 sopropyl-4-oxopyrazolo[1,5-d][1,2,4]triazin-5(4H)-yl)-N-(pyrimidin-4-yl)acetamide] | > 10 | > 10 |
| CCc1nn(CC(=O)Nc2ccncn2)c(=O)c2cc(NC(C)=O)nn12 [Final Cpd 184, 2-(2-acetamido-7-ethyl-4-oxopyrazolo[1,5-d][1,2,4]triazin-5(4H)-yl)-N-(pyrimidin-4-yl)acetamide] | > 10 | > 10 |
